The values below come from patent US20240033244A1, “COMPOSITIONS AND METHODS FOR INHIBITING YTHDF1” (SHANGHAI INSTITUTE OF MATERIA MEDICA, CHINESE ACADEMY OF …, priority 2020, published 2024).

The structures appear in SMILES notation.

For assay [1], the target named is T1, His-YTHDF1 (361-559) (Homo sapiens, UniProt Q9BYJ9).
T1 construct: made in house; host or cells: E. coli BL21 (DE3)
T1 sequence (Q9BYJ9 with tags, fused parts or gaps): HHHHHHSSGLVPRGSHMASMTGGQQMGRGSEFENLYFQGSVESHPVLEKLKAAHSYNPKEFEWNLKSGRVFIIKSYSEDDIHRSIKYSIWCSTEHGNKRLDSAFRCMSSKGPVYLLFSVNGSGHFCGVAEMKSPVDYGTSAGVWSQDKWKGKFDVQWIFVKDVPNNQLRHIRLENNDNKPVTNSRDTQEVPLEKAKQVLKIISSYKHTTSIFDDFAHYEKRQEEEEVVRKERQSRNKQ
The assay can be described thus: AlphaScreen competition assay against non-biotinylated m6A-containing mRNA. Type of assay: binding. The procedure:
200 nM His-YTHDF1 (361-559) was incubated with non-biotinylated m^6A-containing mRNA at 4° C. for 10 minutes. […] Next, 20 nM biotinylated m^6A-containing mRNA and two kinds of beads were added in subdued light and incubated at 4° C. for 1 hour before detection.
A competitive binding experiment was performed against fixed concentrations of non-biotinylated m^6A-containing mRNA, based on AlphaScreen assay, using 200 nM YTHDF1 and 20 nM biotinylated m^6A-containing mRNA.
In general terms: In Alpha technology, singlet oxygen from a donor bead excites a nearby acceptor bead.

Assay [2] has as its system B16-OVA tumor. The assay is described as follows: B16-OVA tumor growth in Ythdf1F/F and CD11ccreYthdf1F/F mice. The assay is classed as in vivo, mouse. The conditions noted are these: 2×10^6 B16-OVA, 10 μM SAA day 9 and day 11. The procedure:
(§1) For B6 mice tumor growth, 5×10^5 B16-OVA or 1×10^6 E.G7-OVA tumor cells were inoculated subcutaneously (s.c.) into the flank of mice. Tumor length (a) and width (b) was measured every two days and tumor volume was calculated by the formula ab^2/2. For the inhibitor treatment, 10 μM SAA or DMSO was injected intraperitoneally (i.p.) on day 9 and 11 after tumor inoculation. For other mice model (rag1^−/− and Ythdf1 conditional knockout), times and dose of inhibitor treatment was the same. For α-PD-L1 and SAA combination treatment, 5×10^5 B16-OVA tumor cells were inoculated subcutaneously into the flank of mice. 100 μg α-PD-L1 antibody (clone 10F.9G2) or rat immunoglobulin were administered at day 9 after tumor inoculation. 10 μM SAA or DMSO was administered in the same way on day 9 and 11 after tumor injection.
To determine whether DCs are the major targets of SAA, Ythdf1^F/F and CD11c^creYthdf1^F/F mice were injected subcutaneously with 2×10^6 B16-OVA cells. Then, 10 μM SAA was injected to each mouse on day 9 and day 11, and tumor growth was monitored.

Assay [3] deals with B16-OVA tumor. The assay can be described thus: B16-OVA tumor growth in Rag1-/- versus wild-type mice. Type of assay: in vivo, mouse. The conditions noted are these: 1×10^5 B16-OVA, 10 μM SAA day 7 to day 9. Here is the method: as §1
T/B cell-deficient Rag1^−/− mice were inoculated with 1×10^5 B16-OVA cells, and 10 μM SAA was then injected to each mouse from day 7 to day 9, and tumor growth was monitored, wild type mice were used as control group.

Assay [4] addresses T1, His-YTHDF1 (361-559). The assay can be described thus: AlphaScreen-based assay, m6A-containing mRNA binding to YTHDF1. To be noted: read-out: IC50, blocking binding between m6A and YTHDF1. The procedure:
Then 10 nM biotinylated m^6A-containing mRNA (5′-biotin-[…] (m^6A) CUGUG-3′) (SEQ ID NO: 15) was added to bind with YTHDF1 (361-559), and unbiotinylated m^6A-containing mRNA was used as the positive control. Before Alpha signal detection, streptavidin donor beads and anti-His acceptor beads were added into the white assay plate in subdued light (OptiPlate™-384, PerkinElmer) and incubated at 4° C. for 1 hour to ensure sufficient binding between biotin tag and streptavidin donor beads, as well as that between His tag and anti-His acceptor beads. Then the Alpha signal was detected on Envision Readers (PerkinElmer).

For another assay, the target named is T2, YTHDF1 mutant W384A (Homo sapiens, UniProt Q9BYJ9, W384A).
T2 construct: GST (N, cleaved yes); made in house; host or cells: E. coli BL21 (DE3)
T2 sequence (Q9BYJ9 with tags, fused parts or gaps W384A): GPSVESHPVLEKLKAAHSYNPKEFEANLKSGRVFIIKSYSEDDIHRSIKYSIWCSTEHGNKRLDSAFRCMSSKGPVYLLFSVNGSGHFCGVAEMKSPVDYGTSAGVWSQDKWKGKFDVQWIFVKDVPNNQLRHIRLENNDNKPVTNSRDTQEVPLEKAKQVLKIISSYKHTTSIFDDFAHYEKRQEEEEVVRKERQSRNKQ
The assay can be described thus: FP assay with YTHDF1 mutant W384A. Type of assay: binding. Here is the method: The protein YTHDF1 (361-559) (SEQ ID NO: 2) and its mutants (SEQ ID NOs: 4-13) were cloned into pGEx-6P-1 vector (obtained from YouBio Co, Ltd, Catalog NO: VT1258), and the His-YTHDF1 (361-559) (SEQ ID NO: 3) used in AlphaScreen Assay was cloned into modified pET28a vector (obtained from YouBio Co, Ltd, Catalog NO: VT1207). The vectors were transformed into E. coli BL21 (DE3) cells and cultured at 37° C. When OD value reached 0.6˜0.8, 1 mM Isopropyl-β-D-thiogalactopyranoside was added to overexpress the protein at 16° C. overnight. […] Then, the proteins were further purified via cation exchange (HiTrap SP, GE Healthcare) and finally through a Superdex 75 10/300 column (GE Healthcare). At last, the purified YTHDF1(361-559) and the mutants were kept in buffer which contains 20 mM Hepes (pH 7.4) and 200 mM NaCl. For His-YTHDF1 (361-559), the protein was purified via Ni-NTA chromatography (HisTrap FF, GE Healthcare), followed by cation exchange and Superdex 75 10/300 column in sequence. And the obtained protein was kept in the buffer with the same ingredients.
All of the YTHDF1 (361-559), the 5′-FAM labeled m^6A-containing mRNA (5′-FAM-[…] (m^6A) CUGUG-3′, SEQ ID NO: 14) and the candidate compounds were diluted with assay buffer (20 mM Hepes (pH 7.4), 50 mM NaCl, 0.01% (v/v) tween 20, 5% (v/v) glycerol). […] At last, the mixtures were measured by Envision Readers (PerkinElmer). […]

On to `O=C(/C=C/c1ccc(O)c(O)c1/C=C/c1ccc(O)c(O)c1)O[C@H](Cc1ccc(O)c(O)c1)C(=O)O` [SAA, Salvianolic Acid A], for which the “inhibitory activity against YTHDF1 with competitor” value at His-YTHDF1 (361-559) [1] (50 nM, 100 nM, 200 nM or 400 nM non-biotinylated m6A-containing mRNA preincubated with YTHDF1) is given as “remained unchanged”. The IC50 at His-YTHDF1 (361-559) [1] (absence of non-biotinylated m6A-containing mRNA, 200 nM YTHDF1, 20 nM biotinylated mRNA, read-out: inhibitory activity against YTHDF1) is 800 ± 80 nM; at His-YTHDF1 (361-559) [4] it was 860 ± 60 nM. Moreover, the values for the tumor growth entry in the assay on B16-OVA tumor [2] (CD11ccreYthdf1F/F mice), with B16-OVA tumor [2] (Ythdf1F/F mice) and with B16-OVA tumor [3] were “no further evident effect of tumor control”, “showed analogous situation as observed in CD11c^creYthdf1^F/F mice” and “tumor growth was arrested”, respectively. The “inhibitory activity against mutant binding to m6A versus wildtype” value at YTHDF1 mutant W384A is on record as “significantly weaker than that against wildtype YTHDF1”.
